Format in all cases: biochemical
One assay addresses CDK9/CycT (Homo sapiens (Human), UniProt P50750). Kind of assay: LANCE Ultra kinase activity inhibition assay, CDK9/CycT. Conditions: ATP 10 μM, highest compound concentration 1 μM. As to the method: (§1) In the following LANCE Ultra test methods, kinase reagents were purchased from Carna Bioscience, reaction substrates and detection reagents were purchased from PerkinElmer, and the remaining reagents were purchased from Thermo scientific.
The inhibiting effects on the kinase activity of CDK1/CycB (Carna bioscience, #04-102), CDK2/CycA (Carna bioscience, #04-103) and CDK9/CycT (Carna bioscience, #04-110) were determined by using LANCE Ultra method.
The kinase activity test was performed using a system (10 μL) containing the following components: substrate diluent prepared by mixing CDK kinase diluent, Ulight-Myelic basic protein (Perkin Elmer, #TRF-0109, hereinafter referred to as U-MBP) and ATP (Thermo scientific, #PV3227); and the compounds (i.e., analyte) prepared in the examples of the present disclosure. The assay for each kinase includes three test groups, i.e., a background group (Blank), a non-inhibition group (PC), and compound testing group (Test). The components included in each test group were as follows:
(§2) Working concentrations of the respective components of the Test groups in different kinase reactions were as follows.
(§3) Compounds: 10 mM of the compound to be tested was dissolved at room temperature and diluted with DMSO to gradient concentrations, followed by diluting with deionized water to prepare a 4× working solution of the compound, and the content of DMSO was 2%. The highest concentration of compound used in the CDK1 and CDK2 assays was 10 μM, and that in CDK9 assay was 1 μM.
1.33×reaction buffer: the components include 26.7 mM of MOPS, 6.67 mM of MgCl2, and 0.0133% Tween-20, which were stored in a 4° C. refrigerator and protected from light after preparation. Freshly prepared DTT was added to a final concentration of 5.33 mM before use.
(§4) The working concentration of DMSO in the reaction was 0.5%.
(§5) The above-mentioned components, after being mixed, were placed on a shaker and incubated at room temperature in the dark for 1 h. 10 μL of test solution was then added to all test groups (including Blank, PC and Test groups).
10 μL of test solution contains the following components: 16 mM of EDTA (Thermo scientific, #15575), 1 nM of phosphorylated U-MBP protein antibody (Perkin Elmer, #TRF-0201), and 1× detection damping fluid (Perkin Elmer, #CR97-100).
After the test solution was added, the solution was placed on a shaker and continually incubated at room temperature for 1 h in the dark. At the end of incubation, Victor X5 fluorescence microplate reader of Perkin Elmer was used to read the signal; the wavelength of excitation light was 320 nm, and the wavelengths of emission light were 615 nm and 665 nm. The inhibition rate was calculated as below.
1. For all groups, a value of 665 nm/615 nm (hereinafter referred to as Ratio) was calculated, and an inhibition rate was calculated based on the Ratio of each group;
(§6) 2. Inhibition rate=(PCRatio-TestRatio)/(PCRatio-BlankRatio)*100%; and
(§7) 3. XLFIT 5.0 software (IDBS, UK) was used to fit a graph by using the logarithmic value of the compound concentration as the X-axis and the inhibition rater as the Y-axis, and a four-parameter model was used to calculate the half inhibitory concentration IC50 of the compound.
A general note: In TR-FRET formats the signal depends on donor and acceptor labels being close together.

Another assay deals with CDK2/CycA (Homo sapiens (Human), UniProt P24941). Kind of assay: LANCE Ultra kinase activity inhibition assay, CDK2/CycA. The following applies: ATP 10 μM, highest compound concentration 10 μM.
Text: as §1
(§8) The assay for each kinase includes three test groups, i.e., a background group (Blank), a non-inhibition group (PC), and compound testing group (Test). The components included in each test group were as follows:
as §2, §3, §4, §5
(§9) After the test solution was added, the solution was placed on a shaker and continually incubated at room temperature for 1 h in the dark. […] The inhibition rate was calculated as below.
as §6, §7

The target in another assay is CDK1/CycB (Homo sapiens (Human), UniProt P06493). The assay can be described thus: LANCE Ultra kinase activity inhibition assay, CDK1/CycB. Conditions: ATP 4 μM, highest compound concentration 10 μM.
Sequence of CDK1/CycB (P06493 whole entry): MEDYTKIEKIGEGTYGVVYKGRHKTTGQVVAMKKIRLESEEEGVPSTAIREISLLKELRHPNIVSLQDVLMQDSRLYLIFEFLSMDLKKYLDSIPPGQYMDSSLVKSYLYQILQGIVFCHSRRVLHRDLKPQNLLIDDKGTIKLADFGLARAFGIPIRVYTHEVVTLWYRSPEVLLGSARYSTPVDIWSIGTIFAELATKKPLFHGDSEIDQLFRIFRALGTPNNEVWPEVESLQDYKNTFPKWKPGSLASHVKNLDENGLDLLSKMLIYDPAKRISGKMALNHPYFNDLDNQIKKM
Sequence of CDK1/CycB (P14635 whole entry partner): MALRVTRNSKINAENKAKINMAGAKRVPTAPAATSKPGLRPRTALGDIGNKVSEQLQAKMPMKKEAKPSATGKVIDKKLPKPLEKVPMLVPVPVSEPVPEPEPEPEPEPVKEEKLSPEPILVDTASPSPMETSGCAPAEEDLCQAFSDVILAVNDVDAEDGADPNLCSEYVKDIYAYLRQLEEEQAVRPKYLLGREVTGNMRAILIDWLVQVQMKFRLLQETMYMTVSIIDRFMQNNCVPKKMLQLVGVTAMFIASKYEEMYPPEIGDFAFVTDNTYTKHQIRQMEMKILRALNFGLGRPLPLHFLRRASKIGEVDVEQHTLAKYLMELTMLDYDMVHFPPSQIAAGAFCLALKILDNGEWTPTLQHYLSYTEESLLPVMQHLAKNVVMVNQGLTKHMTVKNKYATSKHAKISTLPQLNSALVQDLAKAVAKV
Text: as §1, §8, §2, §3, §4, §5, §9, §6, §7

As a reminder, the IC50 is the concentration at which inhibition is half-maximal.

Sequence of CDK9/CycT (P50750 whole entry): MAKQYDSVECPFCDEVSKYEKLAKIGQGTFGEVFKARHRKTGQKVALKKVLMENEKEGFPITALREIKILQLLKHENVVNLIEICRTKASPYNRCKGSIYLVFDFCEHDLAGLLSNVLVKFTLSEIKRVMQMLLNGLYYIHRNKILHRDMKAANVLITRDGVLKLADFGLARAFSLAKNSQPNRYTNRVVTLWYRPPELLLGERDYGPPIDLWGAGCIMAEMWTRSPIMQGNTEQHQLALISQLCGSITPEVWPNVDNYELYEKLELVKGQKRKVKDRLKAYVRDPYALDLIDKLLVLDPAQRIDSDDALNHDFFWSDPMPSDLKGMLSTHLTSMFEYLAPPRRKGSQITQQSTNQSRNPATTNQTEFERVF
Sequence of CDK9/CycT (O60563 whole entry partner): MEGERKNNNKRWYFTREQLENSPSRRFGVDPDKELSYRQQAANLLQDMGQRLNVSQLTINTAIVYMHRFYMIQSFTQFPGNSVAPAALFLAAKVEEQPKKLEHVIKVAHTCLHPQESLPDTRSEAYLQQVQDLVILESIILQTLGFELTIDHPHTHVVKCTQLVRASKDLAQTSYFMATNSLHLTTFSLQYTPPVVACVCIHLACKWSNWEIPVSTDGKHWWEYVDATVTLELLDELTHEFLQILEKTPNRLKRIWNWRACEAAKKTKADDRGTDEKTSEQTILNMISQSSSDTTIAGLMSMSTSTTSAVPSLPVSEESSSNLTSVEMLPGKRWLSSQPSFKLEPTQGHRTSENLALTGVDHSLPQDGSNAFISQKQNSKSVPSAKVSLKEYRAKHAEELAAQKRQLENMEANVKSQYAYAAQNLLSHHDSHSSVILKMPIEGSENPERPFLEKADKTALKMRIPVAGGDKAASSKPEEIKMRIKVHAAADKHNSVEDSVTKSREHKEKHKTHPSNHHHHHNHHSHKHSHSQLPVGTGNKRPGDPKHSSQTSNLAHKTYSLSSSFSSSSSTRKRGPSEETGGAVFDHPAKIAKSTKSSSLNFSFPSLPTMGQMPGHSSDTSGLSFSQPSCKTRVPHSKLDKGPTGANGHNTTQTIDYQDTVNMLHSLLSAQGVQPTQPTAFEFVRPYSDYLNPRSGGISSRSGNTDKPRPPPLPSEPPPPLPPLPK

`Cc1cnn2c(N[C@H]3CC[C@H](N)C3)cc([C@H](C)C3CCC3)nc12` (single isomer, unassigned) [Compound Z-38-P1] showed a half-maximal inhibitory concentration (IC50) on CDK9/CycT of 0.04 µM. This counts as double-digit nanomolar.
Still for that read-out and setting: in the case of `Cc1cnn2c(N[C@H]3CC[C@H](N)C3)cc([C@H](C)C3CCC3)nc12` (single isomer, unassigned) [Compound Z-38-P2] it was 0.016 µM.
In the case of `N[C@H]1CC[C@H](Nc2cc(C(C3CC3)C3CC3)nc3ccnn23)C1` [Compound Z-1], the figures for the IC50 at CDK2/CycA, against CDK9/CycT and on CDK1/CycB were 5.65 µM, 0.018 µM and 1.96 µM, respectively.
The matching figures for `N[C@H]1CC[C@H](Nc2cc(C(C3CC3)C3CC3)nc3c(Cl)cnn23)C1` [Compound Z-2]: 0.191 µM, 0.006 µM and 0.161 µM.
On the same counts, the results for `N[C@H]1CC[C@H](Nc2cc(CC3CC3)nc3ccnn23)C1` [Compound Z-3] are more than 10 µM, 0.073 µM and more than 10 µM.
The matching figures for `N#Cc1cnn2c(N[C@H]3CC[C@H](N)C3)cc(C(C3CC3)C3CC3)nc12` [Compound Z-4]: 0.828 µM, 0.014 µM and 0.716 µM.
`C[C@@H](c1cc(N[C@H]2CC[C@H](N)C2)n2nccc2n1)C1CC1` [Compound Z-5-1]: the IC50 against CDK9/CycT was 0.023 µM.
For `CC(c1cc(N[C@H]2CC[C@H](N)C2)n2nccc2n1)C1CC1` (stereo partly drawn) [Compound Z-5], on CDK9/CycT, the IC50 is 0.017 µM.
Same read-out and setting: in the case of `C[C@@H](c1cc(N[C@H]2CC[C@H](N)C2)n2nccc2n1)C1CCC1` [Compound Z-11-P2] it was 0.03 µM.
Same read-out and setting: the result for `CC(c1cc(N[C@H]2CC[C@H](N)C2)n2nccc2n1)C1CCC1` (stereo partly drawn) [Compound Z-11] reads 0.022 µM.
For the compound `CC(C)(c1cc(N[C@H]2CC[C@H](N)C2)n2nccc2n1)C1CC1` [Compound Z-12], the IC50 at CDK2/CycA was more than 10 µM; at CDK9/CycT it was 0.02 µM; against CDK1/CycB, 2.72 µM.
On the same counts, the results for `CC(c1cc(N[C@H]2CC[C@H](N)C2)n2nccc2n1)C1CCCC1` (stereo partly drawn) [Compound Z-13] are 7.62 µM, 0.018 µM and 1.34 µM.
The matching figures for `N[C@H]1CC[C@H](Nc2cc(C(C3CC3)C3CC3)nc3c(C4CC4)cnn23)C1` [Compound Z-14]: 2.55 µM, 0.042 µM and 1.61 µM.
On the same counts, the results for `N[C@H]1CC[C@H](Nc2cc(C(C3CC3)C3CC3)nc3c(F)cnn23)C1` [Compound Z-15] are 0.367 µM, 0.005 µM and 0.293 µM.
As to `CCc1cnn2c(N[C@H]3CC[C@H](N)C3)cc(C(C3CC3)C3CC3)nc12` [Compound Z-16], the IC50 is 1.27 µM against CDK2/CycA, 0.022 µM on CDK9/CycT and 1.27 µM against CDK1/CycB.
For the compound `CC1(Cc2cc(N[C@H]3CC[C@H](N)C3)n3nccc3n2)CC1` [Compound Z-17], the values for the IC50 against CDK2/CycA, against CDK9/CycT and at CDK1/CycB were more than 10 µM, 0.06 µM and 8.45 µM, respectively.
In the case of `C=CC(C)(C)c1cc(N[C@H]2CC[C@H](N)C2)n2nccc2n1` [Compound Z-18], the values for the half-inhibitory concentration (IC50) on CDK2/CycA, on CDK9/CycT and against CDK1/CycB were more than 10 µM, 0.033 µM and 4.2 µM, respectively.
The matching figures for `C=CC(C)(C)c1cc(N[C@H]2CC[C@H](N)C2)n2ncc(C)c2n1` [Compound Z-19]: more than 10 µM, 0.092 µM and more than 10 µM.
In the case of `CCc1cnn2c(N[C@H]3CC[C@H](N)C3)cc(C(C)C3CC3)nc12` (stereo partly drawn) [Compound Z-20], the figures for the IC50 at CDK2/CycA, against CDK9/CycT and at CDK1/CycB were 4.39 µM, 0.034 µM and 2.42 µM, respectively.
For `CC(c1cc(N[C@H]2CC[C@H](N)CC2)n2nccc2n1)C1CC1` (stereo partly drawn) [Compound Z-21], the half-inhibitory concentration (IC50) against CDK2/CycA is 3.29 µM; against CDK9/CycT, 0.029 µM; on CDK1/CycB it was 4.37 µM.
On to `CC(c1cc(N[C@H]2CC[C@H](N)C2)n2nccc2n1)(C1CC1)C1CC1` [Compound Z-22], for which the half-inhibitory concentration (IC50) came to 8.64 µM at CDK2/CycA, 0.013 µM on CDK9/CycT and 1.77 µM at CDK1/CycB.
On the same counts, the results for `CC(C)c1cnn2c(N[C@H]3CC[C@H](N)C3)cc(C(C3CC3)C3CC3)nc12` [Compound Z-24] are 2.92 µM, 0.084 µM and 2.53 µM.
On the same counts, the results for `Cc1cnn2c(N[C@H]3CC[C@H](N)C3)cc(CC3(C)CC3)nc12` [Compound Z-25] are 8.71 µM, 0.021 µM and 9.87 µM.
On the same counts, the results for `Cc1cnn2c(N[C@H]3CC[C@H](N)C3)cc([C@H](C)C3(C)CC3)nc12` [Compound Z-26-P1] are 1.8 µM, 0.005 µM and 1.62 µM.
Turning to `Cc1cnn2c(N[C@H]3CC[C@H](N)C3)cc([C@@H](C)C3(C)CC3)nc12` [Compound Z-26-P2], the IC50 at CDK2/CycA is more than 10 µM; at CDK9/CycT, 0.078 µM; at CDK1/CycB, more than 10 µM.
As for `Cc1cnn2c(N[C@H]3CC[C@H](N)C3)cc(C(C)C3(C)CC3)nc12` (stereo partly drawn) [Compound Z-26], the IC50 at CDK2/CycA came to 7.06 µM; at CDK9/CycT, 0.026 µM; against CDK1/CycB it was 3.92 µM.
On the same counts, the results for `C[C@@H](c1cc(N[C@H]2CC[C@H](N)C2)n2nccc2n1)C1(C)CC1` [Compound Z-27-P1] are more than 10 µM, 0.047 µM and 1.21 µM.
The matching figures for `C[C@H](c1cc(N[C@H]2CC[C@H](N)C2)n2nccc2n1)C1(C)CC1` [Compound Z-27-P2]: 2.78 µM, 0.008 µM and 2.08 µM.
Turning to `CC(c1cc(N[C@H]2CC[C@H](N)C2)n2nccc2n1)C1(C)CC1` (stereo partly drawn) [Compound Z-27], the half-inhibitory concentration (IC50) on CDK2/CycA is 2.82 µM; against CDK9/CycT, 0.009 µM; on CDK1/CycB, 0.772 µM.
On the same counts, the results for `CC[C@@H](c1cc(N[C@H]2CC[C@H](N)C2)n2nccc2n1)C1CC1` [Compound Z-28-P1] are 4.51 µM, 0.006 µM and 2.05 µM.
Consider `CC[C@H](c1cc(N[C@H]2CC[C@H](N)C2)n2nccc2n1)C1CC1` [Compound Z-28-P2], for which the IC50 was more than 10 µM against CDK2/CycA, 0.012 µM against CDK9/CycT and 2.39 µM against CDK1/CycB.
The matching figures for `CCC(c1cc(N[C@H]2CC[C@H](N)C2)n2nccc2n1)C1CC1` (stereo partly drawn) [Compound Z-28]: 3.07 µM, 0.011 µM and 1.86 µM.
The matching figures for `CC1(Cc2cc(N[C@H]3CC[C@H](N)C3)n3ncc(Cl)c3n2)CC1` [Compound Z-29]: 2.06 µM, 0.011 µM and 1.89 µM.
On the same counts, the results for `CC[C@H](c1cc(N[C@H]2CC[C@H](N)C2)n2ncc(C)c2n1)C1CC1` [Compound Z-30-P1] are 0.968 µM, 0.01 µM and 1.12 µM.
As for `CC[C@@H](c1cc(N[C@H]2CC[C@H](N)C2)n2ncc(C)c2n1)C1CC1` [Compound Z-30-P2], the IC50 came to 4.91 µM on CDK2/CycA, 0.022 µM at CDK9/CycT and 3.54 µM against CDK1/CycB.
With `Cc1cnn2c(N[C@H]3CC[C@H](N)C3)cc(C(C)C3CCC3)nc12` (stereo partly drawn) [Compound Z-38], the half-maximal inhibitory concentration (IC50) against CDK9/CycT was determined as 0.017 µM.
Take `NN1CCC(Nc2cc(C(C3CC3)C3CC3)nc3ccnn23)C1` (stereo not drawn) [Compound Z-59]: the figures for the IC50 on CDK2/CycA and at CDK1/CycB were more than 10 µM and 8.82 µM, respectively.

Source of the values: patent US20240109898A1, “SUBSTITUTED PYRAZOLO[1,5-A]PYRIMIDINE-7-AMINE DERIVATIVES, COMPOSITIONS AND PHARMACEUTICAL USES THEREOF” (SHANGHAI HAIYAN PHARMACEUTICAL TECHNOLOGY CO., LTD., priority 2021, published 2024).
